From PMC5869712 (Scientific Reports, 2018)

Assays:
Assay in all cases: Eurofins Kinase Profiler panel
Assay type in all cases: biochemical
Conditions in all cases: read-out: % inhibition (1μM), DMSO control=100%, lower=stronger
ALK = target: T1, ALK (Homo sapiens, UniProt Q9UM73)
T1 construct: purchased Eurofins KinaseProfiler (Eurofins Pharma Discovery Services UK, Dundee); JAK3 also ChemPartner

IR = target: T2, IR (Homo sapiens, UniProt P06213)
T2 construct: purchased Eurofins KinaseProfiler (Eurofins Pharma Discovery Services UK, Dundee); JAK3 also ChemPartner

JNK2α2 = target: T3, JNK2α2 (Homo sapiens, UniProt P45984)
T3 construct: purchased Eurofins KinaseProfiler (Eurofins Pharma Discovery Services UK, Dundee); JAK3 also ChemPartner
T3 sequence (P45984 whole entry): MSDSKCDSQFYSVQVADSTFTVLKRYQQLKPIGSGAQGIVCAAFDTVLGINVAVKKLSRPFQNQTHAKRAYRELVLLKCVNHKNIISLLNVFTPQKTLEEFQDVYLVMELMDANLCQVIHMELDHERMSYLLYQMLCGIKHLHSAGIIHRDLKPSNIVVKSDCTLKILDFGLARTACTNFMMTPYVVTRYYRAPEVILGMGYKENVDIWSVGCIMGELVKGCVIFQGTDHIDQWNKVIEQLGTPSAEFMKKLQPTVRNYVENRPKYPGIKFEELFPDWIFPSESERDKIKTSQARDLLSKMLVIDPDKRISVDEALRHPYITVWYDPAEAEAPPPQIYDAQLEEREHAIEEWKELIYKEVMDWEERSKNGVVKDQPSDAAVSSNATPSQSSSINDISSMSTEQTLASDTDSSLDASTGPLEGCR

T1 sequence (Q9UM73 19-1620): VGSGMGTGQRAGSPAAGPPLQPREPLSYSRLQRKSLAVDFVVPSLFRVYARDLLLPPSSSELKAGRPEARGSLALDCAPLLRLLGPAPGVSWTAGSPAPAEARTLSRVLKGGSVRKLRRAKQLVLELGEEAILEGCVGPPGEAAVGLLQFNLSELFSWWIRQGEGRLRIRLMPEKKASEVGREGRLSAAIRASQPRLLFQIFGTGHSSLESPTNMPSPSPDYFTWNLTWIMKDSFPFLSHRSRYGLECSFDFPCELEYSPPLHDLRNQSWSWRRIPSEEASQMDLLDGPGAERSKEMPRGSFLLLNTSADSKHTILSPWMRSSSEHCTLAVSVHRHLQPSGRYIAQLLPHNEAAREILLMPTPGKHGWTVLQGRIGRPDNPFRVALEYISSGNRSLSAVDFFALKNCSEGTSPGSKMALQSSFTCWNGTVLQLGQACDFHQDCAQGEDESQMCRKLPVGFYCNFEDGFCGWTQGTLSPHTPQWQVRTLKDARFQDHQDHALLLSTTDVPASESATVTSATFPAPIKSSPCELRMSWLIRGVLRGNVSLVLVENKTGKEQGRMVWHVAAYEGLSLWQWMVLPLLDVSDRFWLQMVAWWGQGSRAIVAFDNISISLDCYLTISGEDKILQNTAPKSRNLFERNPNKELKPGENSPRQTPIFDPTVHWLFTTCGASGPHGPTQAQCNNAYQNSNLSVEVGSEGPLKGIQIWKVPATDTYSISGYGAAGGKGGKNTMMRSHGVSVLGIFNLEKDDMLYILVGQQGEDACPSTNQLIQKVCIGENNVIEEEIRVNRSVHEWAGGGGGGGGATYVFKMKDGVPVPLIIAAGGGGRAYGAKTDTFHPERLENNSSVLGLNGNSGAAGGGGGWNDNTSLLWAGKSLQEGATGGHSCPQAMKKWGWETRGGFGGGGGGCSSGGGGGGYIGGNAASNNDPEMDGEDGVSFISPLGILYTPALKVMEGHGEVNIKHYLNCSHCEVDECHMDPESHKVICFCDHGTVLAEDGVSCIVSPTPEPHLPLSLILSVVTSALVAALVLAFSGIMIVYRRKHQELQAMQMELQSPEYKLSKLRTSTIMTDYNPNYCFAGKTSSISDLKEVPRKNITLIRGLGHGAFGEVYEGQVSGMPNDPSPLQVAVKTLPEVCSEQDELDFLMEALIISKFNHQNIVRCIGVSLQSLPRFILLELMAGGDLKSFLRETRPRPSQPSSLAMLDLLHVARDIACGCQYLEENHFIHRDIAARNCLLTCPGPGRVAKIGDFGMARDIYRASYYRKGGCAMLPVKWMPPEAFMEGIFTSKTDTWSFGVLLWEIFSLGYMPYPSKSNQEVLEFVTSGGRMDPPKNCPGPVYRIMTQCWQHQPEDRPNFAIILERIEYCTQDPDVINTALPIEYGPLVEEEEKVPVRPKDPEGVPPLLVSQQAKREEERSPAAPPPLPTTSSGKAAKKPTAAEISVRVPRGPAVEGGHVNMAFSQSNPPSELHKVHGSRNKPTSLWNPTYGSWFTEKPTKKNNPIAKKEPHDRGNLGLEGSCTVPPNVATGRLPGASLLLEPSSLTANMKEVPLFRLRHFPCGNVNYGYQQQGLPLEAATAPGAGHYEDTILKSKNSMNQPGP
T2 sequence (P06213 28-1382): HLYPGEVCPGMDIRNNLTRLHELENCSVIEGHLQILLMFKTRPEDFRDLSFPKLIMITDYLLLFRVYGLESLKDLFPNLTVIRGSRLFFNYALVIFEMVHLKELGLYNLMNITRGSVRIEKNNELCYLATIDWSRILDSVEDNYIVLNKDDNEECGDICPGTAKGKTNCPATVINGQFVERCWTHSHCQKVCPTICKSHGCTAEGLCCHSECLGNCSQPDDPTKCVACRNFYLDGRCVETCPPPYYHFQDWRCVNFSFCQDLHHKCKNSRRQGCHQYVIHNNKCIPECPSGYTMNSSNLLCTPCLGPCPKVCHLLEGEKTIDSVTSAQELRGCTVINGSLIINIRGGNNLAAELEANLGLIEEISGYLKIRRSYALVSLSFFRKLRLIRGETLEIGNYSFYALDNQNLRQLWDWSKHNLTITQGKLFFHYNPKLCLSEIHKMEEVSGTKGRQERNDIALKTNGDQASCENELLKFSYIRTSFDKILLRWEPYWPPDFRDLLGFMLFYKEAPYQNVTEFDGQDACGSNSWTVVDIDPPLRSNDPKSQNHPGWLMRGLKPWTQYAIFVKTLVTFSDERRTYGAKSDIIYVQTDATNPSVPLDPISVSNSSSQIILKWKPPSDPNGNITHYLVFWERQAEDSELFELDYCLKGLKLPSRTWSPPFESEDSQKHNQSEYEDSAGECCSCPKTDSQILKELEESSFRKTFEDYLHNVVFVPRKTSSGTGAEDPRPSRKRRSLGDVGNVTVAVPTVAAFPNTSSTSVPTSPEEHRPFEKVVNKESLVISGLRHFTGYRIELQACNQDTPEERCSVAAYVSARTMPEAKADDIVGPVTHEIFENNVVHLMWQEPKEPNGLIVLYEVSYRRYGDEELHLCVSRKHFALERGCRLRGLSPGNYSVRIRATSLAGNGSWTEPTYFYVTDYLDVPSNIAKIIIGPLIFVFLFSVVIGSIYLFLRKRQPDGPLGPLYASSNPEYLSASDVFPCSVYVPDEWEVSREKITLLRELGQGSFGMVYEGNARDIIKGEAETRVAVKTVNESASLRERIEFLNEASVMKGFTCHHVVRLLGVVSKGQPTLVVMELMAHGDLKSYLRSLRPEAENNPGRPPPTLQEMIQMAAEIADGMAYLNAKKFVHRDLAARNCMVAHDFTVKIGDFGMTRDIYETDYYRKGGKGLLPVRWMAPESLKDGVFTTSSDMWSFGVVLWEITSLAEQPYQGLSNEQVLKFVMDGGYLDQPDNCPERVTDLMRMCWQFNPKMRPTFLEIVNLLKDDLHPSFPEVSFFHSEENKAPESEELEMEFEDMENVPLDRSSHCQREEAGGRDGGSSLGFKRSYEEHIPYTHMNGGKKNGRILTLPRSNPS

In the case of `C=CC(=O)N[C@@H]1CCCN(c2ncnc3[nH]ccc23)C1` [RB1], the activity at 1 µM (ALK) is reported as 100%, the activity at 1 µM (IR) is reported as 114% and the activity at 1 µM (JNK2α2) is reported as 109%.
